These results are taken from ChEMBL document CHEMBL5131414, “Design, synthesis, and evaluation of phenylpiperazine-phenylacetate derivatives as rapid recovery hypnotic agents” (Bioorg Med Chem Lett, 2022).

SMILES strings stand for the structures.

Data set [1] is described as follows: Lipophilicity, logP of the compound. Particulars: octanol/water. Format: physicochemical.
Data set [2] deals with Mus musculus. Description: Anesthetic activity in mouse assessed as concentration required to induce hypnotic effect. Format: functional, organism-based.
Data set [3] can be described thus: Toxicity in mouse assessed as lethal dose. The conditions noted are these: in vivo.
Data set [4] is described as follows: Therapeutic index, ratio of LD50 for toxicity in mouse to HD50 for anesthetic activity in mouse. Particulars: in vivo, read-out: TI. Format: organism-based.
For data set [5], the target named is GABA-A receptor; anion channel (Homo sapiens) (UniProt P14867+P47870+P18507+P28472+P48169+Q99928+Q9UN88+P34903+O00591+O14764+Q8N1C3+P18505+P78334+P47869+P31644+Q16445). The data set is described as follows: Inhibition of GABAA receptor (unknown origin) at 50 uM by radioligand receptor binding assay relative to control. It is filed as protein-complex assay.
The test system of data set [6] is Mus musculus. Description: Anesthetic activity in mouse assessed as onset time. It is filed as functional.
For data set [7], the system named is Mus musculus. Description: Anesthetic activity in mouse assessed as time duration of loss of righting reflex. Format: functional.
In data set [8] the test system is Mus musculus. The data set is described as follows: Anesthetic activity in mouse assessed as time to walk at 2 times of HD50 concentration. It is filed as functional.
Data set [9] concerns Rattus norvegicus. The data set is described as follows: Anesthetic activity in rat assessed as concentration required to induce hypnotic effect. It is filed as functional, organism-based.
The nature of data set [10]: Toxicity in rat assessed as lethal dose. Particulars: in vivo.
Data set [11] in a line: Therapeutic index, ratio of LD50 for toxicity in rat to HD50 for anesthetic activity in rat. The conditions noted are these: read-out: TI.
Data set [12] concerns Oryctolagus cuniculus. The data set is described as follows: Anesthetic activity in rabbit assessed as concentration required to induce hypnotic effect. It is filed as functional, organism-based.
A short description of data set [13]: Toxicity in rabbit assessed as lethal dose. More on the design: species or system Oryctolagus cuniculus. Particulars: in vivo.
Data set [14] in a line: Therapeutic index, ratio of LD50 for toxicity in rabbit to HD50 for anesthetic activity in rabbit. The conditions noted are these: read-out: TI.
Data set [15] concerns Rattus norvegicus. Description: Anesthetic activity in rat assessed as onset time. Format: functional.
Data set [16] deals with Rattus norvegicus. The data set is described as follows: Anesthetic activity in rat assessed as time duration of loss of righting reflex. It is filed as functional.
The subject of data set [17] is Rattus norvegicus. The data set is described as follows: Anesthetic activity in rat assessed as time to walk at 2 times of HD50 concentration. It is filed as functional.
The subject of data set [18] is Oryctolagus cuniculus. Description: Anesthetic activity in rabbit assessed as onset time. It is filed as functional.
Data set [19] has as its system Oryctolagus cuniculus. Description: Anesthetic activity in rabbit assessed as time duration of loss of righting reflex. It is filed as functional.
Data set [20] has as its system Oryctolagus cuniculus. The data set is described as follows: Anesthetic activity in rabbit assessed as time to walk at 2 times of HD50 concentration. Format: functional.

In the case of `CCOc1cc(CC(=O)OC(C)C)ccc1OCC(=O)N1CCN(c2ccccc2)CC1`, the lipophilicity (logP) in data set [1] was found to be 3.5. Further, in data set [2], the “HD50 (median hypnotic dose)” value came to 36.8 mg/kg. Moreover, the LD50 in data set [3] came to 265 mg/kg. Moreover, the selectivity ratio in data set [4] is 7.2. This molecule also yielded an inhibition in data set [5] of 54.2%.

For the molecule `CCCOC(=O)Cc1ccc(OCC(=O)N(CC)CC)c(OC)c1` [PROPANIDID], the lipophilicity (logP) in data set [1] was determined as 2.1. Besides, the selectivity ratio turned out to be 5.6 in data set [4], 9.6 in data set [11] and 14.7 in [14]. Besides, the Time in [6] is 6.7 s; in data set [7] it was 89.6 s; in data set [8] it was 56.3 s; in [15], 16.3 s; in data set [16], 93.3 s; in data set [17], 58.7 s. In addition, the values for the Time in data set [18], in data set [19] and in data set [20] were 22.6 s, 265.4 s and 124.5 s, respectively. For the same molecule, the values for the EC50 in data set [9] and in [12] were 8.4 mg/kg and 5.1 mg/kg, respectively. Moreover, the values for the LD50 in data set [10] and in data set [13] were 81 mg/kg and 75.4 mg/kg, respectively. Also, the inhibition in data set [5] stood at 83.2%.

As to `CCOC(=O)Cc1ccc(OCC(=O)N2CCN(c3cccc(Cl)c3Cl)CC2)c(OCC)c1`, the logP in data set [1] worked out at 4.3. In addition, the “HD50 (median hypnotic dose)” value in data set [2] worked out at 36.5 mg/kg. Also, the LD50 in data set [3] was found to be 237 mg/kg. In addition, the selectivity ratio in data set [4] is 6.5. For the same molecule, in data set [5], the inhibition was 42.1%.

In turn, `CCOc1cc(CC(=O)OC(C)C)ccc1OCC(=O)N1CCN(c2cccc(Cl)c2Cl)CC1` showed a logP in [1] of 4.6. Further, in data set [2], the “HD50 (median hypnotic dose)” value turned out to be 39.5 mg/kg. Also, the LD50 in data set [3] was 254 mg/kg. Besides, the selectivity ratio in [4] was determined as 6.4. In [5], this molecule yielded an inhibition of 35.9%.

The molecule `CCOc1cc(CC(=O)OCC(F)(F)F)ccc1OCC(=O)N1CCN(c2cccc(C(F)(F)F)c2)CC1` gave a log partition coefficient (logP) in data set [1] of 4.7. For the same molecule, in data set [2], the “HD50 (median hypnotic dose)” value amounted to 31.2 mg/kg. Moreover, in [3], the LD50 was 198 mg/kg. The selectivity ratio in [4] came out at 6.3. In data set [5], this molecule returned an inhibition of 38.8%.

In the case of `CCOC(=O)Cc1ccc(OCC(=O)N2CCN(c3cccc(C)c3C)CC2)c(OCC)c1`, the logP in [1] was found to be 4.1. Also, in data set [2], the “HD50 (median hypnotic dose)” value came out at 32.2 mg/kg. Moreover, the LD50 in [3] was found to be 209 mg/kg. Besides, the selectivity ratio in data set [4] came out at 6.5. This molecule gave an inhibition in data set [5] of 38.7%.

For `CCCOC(=O)Cc1ccc(OCC(=O)N2CCN(c3cccc(C)c3C)CC2)c(OCC)c1`, the lipophilicity (logP) in [1] is 4.6. Moreover, in data set [2], the “HD50 (median hypnotic dose)” value came to 42.5 mg/kg. In addition, in data set [3], the median lethal dose (LD50) is 269 mg/kg. Besides, in data set [4], the selectivity ratio was determined as 6.3. In addition, in data set [5], the inhibition was 45.5%.

`COc1cc(CC(=O)OCC(F)(F)F)ccc1OCC(=O)N1CCN(c2ccccc2)CC1` showed a lipophilicity (logP) in [1] of 3.4. Moreover, the “HD50 (median hypnotic dose)” value in data set [2] was found to be 30.8 mg/kg. In addition, the median lethal dose (LD50) in data set [3] was found to be 200 mg/kg. Also, the selectivity ratio in data set [4] worked out at 6.5. In data set [5], this molecule showed an inhibition of 29.9%.

On to `CCOc1cc(CC(=O)OC(C)C)ccc1OCC(=O)N1CCN(c2cccc(C(F)(F)F)c2)CC1`, for which the logP in [1] came to 4.4. Also, the “HD50 (median hypnotic dose)” value in data set [2] was determined as 31.6 mg/kg. For the same molecule, the LD50 in data set [3] was 163 mg/kg. Moreover, the selectivity ratio in [4] was 5.1. In data set [5], this molecule displayed an inhibition of 54.7%.

In data set [1], `CCCOC(=O)Cc1ccc(OCC(=O)N2CCN(c3ccccc3)CC2)c(OC)c1` had a log partition coefficient (logP) of 3.3. The “HD50 (median hypnotic dose)” value in data set [2] is 33.2 mg/kg. The LD50 in data set [3] is 190 mg/kg. For the same molecule, the selectivity ratio in data set [4] amounted to 5.7. The same molecule gave an inhibition in data set [5] of 35.6%.

`CCOC(=O)Cc1ccc(OCC(=O)N2CCN(c3cccc(C(F)(F)F)c3)CC2)c(OCC)c1` had a lipophilicity (logP) in data set [1] of 4.1. In addition, in [2], the “HD50 (median hypnotic dose)” value was 42.5 mg/kg. Moreover, in [3], the 50% lethal dose (LD50) is 289 mg/kg. Further, the selectivity ratio in [4] turned out to be 6.8. Besides, the inhibition in [5] was found to be 44.4%.

In turn, `CCOc1cc(CC(=O)OCC(F)(F)F)ccc1OCC(=O)N1CCN(c2cccc(C)c2C)CC1` showed a logP in data set [1] of 4.7. For the same molecule, the “HD50 (median hypnotic dose)” value in [2] was determined as 35.6 mg/kg. In addition, in data set [3], the LD50 worked out at 227 mg/kg. In addition, the selectivity ratio in data set [4] is 6.4. The molecule further came in with an inhibition in data set [5] of 32.1%.

For the molecule `CCCOC(=O)Cc1ccc(OCC(=O)N2CCN(c3cccc(Cl)c3Cl)CC2)c(OCC)c1`, the logP in [1] turned out to be 4.7. The “HD50 (median hypnotic dose)” value in data set [2] worked out at 38.6 mg/kg. Besides, the LD50 in [3] is 201 mg/kg. Also, in data set [4], the selectivity ratio worked out at 5.2. The same molecule yielded an inhibition in data set [5] of 33.3%.

With `CCOc1cc(CC(=O)OCC(F)(F)F)ccc1OCC(=O)N1CCN(c2ccccc2)CC1`, the lipophilicity (logP) in [1] was 3.8. The “HD50 (median hypnotic dose)” value in data set [2] was found to be 24.8 mg/kg. Moreover, the LD50 in data set [3] is 193 mg/kg. Further, in data set [4], the selectivity ratio worked out at 7.8. For the same molecule, the Time in data set [6] is 7.1 s; in [7], 76.5 s; in data set [8] it was 44.9 s. In addition, the inhibition in data set [5] is 70.6%.

Take `COc1cc(CC(=O)OCC(F)(F)F)ccc1OCC(=O)N1CCN(c2cccc(Cl)c2Cl)CC1`: the logP in [1] is 4.6. In data set [2], the “HD50 (median hypnotic dose)” value turned out to be 34.5 mg/kg. Further, the 50% lethal dose (LD50) in data set [3] stood at 225 mg/kg. In addition, the selectivity ratio in [4] was determined as 6.5. In data set [5], this molecule returned an inhibition of 39.4%.

Turning to `CCCOC(=O)Cc1ccc(OCC(=O)N(CC)CC)c(OCC)c1` [AZD-3043], the logP in data set [1] stood at 2.5. Also, the “HD50 (median hypnotic dose)” value in data set [2] was determined as 17.6 mg/kg. The selectivity ratio in [4] came to 6; in [11], 10.1; in [14] it was 16.8. Besides, the Time in data set [6] came to 5.6 s; in [7] it was 63.8 s; in data set [8], 46.7 s; in data set [15] it was 12.4 s; in data set [16], 74.2 s; in data set [17] it was 38.4 s. Further, the Time is on record as 19.8 s in data set [18], 221.6 s in [19] and 89.6 s in data set [20]. The EC50 in [9] was 7.9 mg/kg; in data set [12], 4.6 mg/kg. The LD50 in data set [10] is 79.8 mg/kg; in data set [13] it was 77.3 mg/kg. Also, the inhibition in data set [5] was 70.2%.

For `CCOc1cc(CC(=O)OC(C)C)ccc1OCC(=O)N1CCN(c2cccc(C)c2C)CC1`, the logP in [1] was 4.4. In [2], the “HD50 (median hypnotic dose)” value was found to be 31.4 mg/kg. In data set [3], the LD50 turned out to be 200 mg/kg. Besides, the selectivity ratio in data set [4] amounted to 6.4. The molecule further showed an inhibition in data set [5] of 42.7%.

With `CCOC(=O)Cc1ccc(OCC(=O)N2CCN(c3ccccc3)CC2)c(OCC)c1`, the logP in [1] is 3.1. In addition, the “HD50 (median hypnotic dose)” value in data set [2] stood at 30.6 mg/kg. Also, in [3], the LD50 came out at 208 mg/kg. Moreover, the selectivity ratio in data set [4] is 6.8. This molecule had an inhibition in [5] of 22.1%.

On to `CCCOC(=O)Cc1ccc(OCC(=O)N2CCN(c3cccc(C(F)(F)F)c3)CC2)c(OCC)c1`, for which the logP in data set [1] is 4.5. Also, the “HD50 (median hypnotic dose)” value in data set [2] was found to be 33.6 mg/kg. For the same molecule, the LD50 in data set [3] was determined as 176 mg/kg. Also, in data set [4], the selectivity ratio came to 5.2. In data set [5], this molecule gave an inhibition of 49.6%.
